Values joined by “and” are separate entries in the source; they are usually repeats but may differ in a detail not shown here. Equal entries are not always repeated. Where two headings read alike, the source gives them in different places.
Experiments:
[1] = tested on: VERO (monkey kidney epithelial cells); assay: In vitro cytotoxicity assay (MTS), VERO; type: cell-based
[2] = tested on: New Zealand rabbits; assay: Hepatic toxicity (GGT and GOT determination); type: in vivo; conditions: iv, DCX 2.5 mg/kg or equivalent, 24 hours after inoculation
Method: The experiment was carried out using New Zealand rabbits kept in facilities under controlled environmental conditions (temperature of 22° C.+3° C.; 12-hour light/dark cycle) and with free access to food and water. Acclimatization was performed for a minimum of 10 days prior to the start of the experiment. Each animal weighted approximately 2.8 kg and was distributed into a group of 5 animals each.
Formulations were administered intravenously (in marginal ear vein) into rabbits that had previously been intravenously injected with a combination of Ketamine-Xylazine-Acepromazine. Amounts of Gamma glutamil transaminase (GGT) and glutamic-oxaloacetic transaminase (GOT) were determined in plasma of the rabbits 24 hours after inoculation with the formulation. The results of each sample were statistically analyzed with ANOVA and Duncan Test using SPSS 11.0.

[3] = tested on: rabbits
[4] = tested on: PC3 (prostate cancer epithelial cells); assay: In vitro cytotoxicity assay (MTS), PC3; type: cell-based, human
Method: 50 μL of the cell suspensions were seeded in 96-well plates in duplicate with Dulbecco's basal medium plus 10% fetal bovine serum supplemented with 10% fetal bovine serum (FBS) for PC-3, and with DMEM/Ham's F12 medium containing 10% FBS, 1% 1-glutamine for A549 cell line. Both were maintained in culture for 24 hours. The cells were then treated with serial diluted concentrations of DCX starting from 100 nM and incubated for 48 hours. At the end of incubation, 20 μL/well of MTS/PMs solution (2 mL of MTS with 100 μL of PMS solution) were added. Then, plates were incubated at 37° C., 5% CO2 for 4 hours.
(§1) Absorbance values obtained from the in vitro cytotoxicity assay of DCX, Nano+DCX, and Nano+DCX+ApoE3 samples were plotted based on the DCX concentration employed, using OriginPro 8 software (ORIGINLAB Corporation, USA). The IC50 (nM) of each of the samples was determined at 50% of the maximum absorbance value obtained, corresponding to the value obtained for the growth control.

[5] = Liver accumulation of Docetaxel in rabbits; type: in vivo; conditions: iv, 2.5 mg/kg DCX
Method: In measuring the liver accumulation, the animals were randomly divided into four groups following the above plasma assay. The groups were as follows:
The livers of the rabbits were totally removed at 24 hours and 36 hours, then weighed, frozen and stored at […]. The rabbit liver samples were precipitated with acetonitrile, followed by solid phase extraction (SPE), evaporation and resuspension of the resulting extract in a solvent and then analyzed by injection into LC ESI MS/MS. The determinations were performed by liquid chromatography and mass spectrometry (using a Shimadzu UFLC XR liquid chromatograph coupled to a AB Sciex 3200 QTrap mass spectrometer).
Values are Media±SEM. (N=5).

[6] = In vitro drug release by dialysis against human plasma; type: in vitro ADME; conditions: dialysis against 10% human plasma, 37° C., up to 72 hours
Method: Drug release kinetics were evaluated in vitro by comparing solutions containing:
The respective solution samples were placed in 12 KDa dialysis bags and dialyzed against a 10% V/V solution of human plasma for 72 hours at 37° C. in an orbital shaker with constant agitation at 60 rpm. Assays were then performed in triplicate, with samples taken from each solution at 0, 1, 2, 3, 6, 9, 24, 48, and 72 hours after dialysis initiation. […] The recovered organic phase was dried in a rotary evaporator, and the obtained dry material was resuspended in acetonitrile for further HPLC analysis.

[7] = in vivo; cited from earlier work
[8] = tested on: A549 (lung cancer epithelial cells); assay: In vitro cytotoxicity assay (MTS), A549; type: cell-based, human
Method: 50 μL of the cell suspensions were seeded in 96-well plates in duplicate with Dulbecco's basal medium plus 10% fetal bovine serum supplemented with 10% fetal bovine serum (FBS) for PC-3, and with DMEM/Ham's F12 medium containing 10% FBS, 1% 1-glutamine for A549 cell line. Both were maintained in culture for 24 hours. The cells were then treated with serial diluted concentrations of DCX starting from 100 nM and incubated for 48 hours. At the end of incubation, 20 μL/well of MTS/PMs solution (2 mL of MTS with 100 μL of PMS solution) were added. Then, plates were incubated at 37° C., 5% CO2 for 4 hours. […] The result allowed for conditions for evaluating the growth inhibition of the Nano+DCX and Nano+DCX+ApoE3 to be defined.
as §1, with “control. The anti-proliferation effect shown on different cells with DCX, Nano+DCX, and Nano+DCX+ApoE3 decreased cell proliferation.” for “control.”

[9] = tested on: human plasma proteins; conditions: cited from earlier work

SMILES: CC(=O)O[C@@]12CO[C@@H]1C[C@H](O)[C@@]1(C)C(=O)[C@H](O)C3=C(C)[C@@H](OC(=O)[C@H](O)[C@@H](NC(=O)OC(C)(C)C)c4ccccc4)C[C@@](O)([C@@H](OC(=O)c4ccccc4)[C@H]21)C3(C)C [TAXOTERE, Docetaxel]
- IC50 ([1]; Normal Serum, 48 hours, listed as DCX, read-out: IC50 in VERO, individual tests): 145 nM and 140 nM and 150 nM
- IC50 ([1]; Primates, Vero, 48 h, Normal Serum, 48 hours, read-out: IC50 in VERO, individual tests): 136 nM
- IC50 ([1]; Primates, Vero, 48 h, Serum Free of Lipoprotein, 48 hours, read-out: IC50 in VERO, individual tests): 138 nM
- IC50 ([1]; Primates, Vero, LP-FREE SERUM, Table 18, read-out: IC50 Normal Cell (Vero)): 129 nM
- IC50 ([1]; Primates, Vero, NORMAL SERUM, Table 18, read-out: IC50 Normal Cell (Vero)): 143 nM
- IC50 ([1]; Primates, Vero, Normal Serum, average of tests, read-out: IC50 in VERO): 143 ± 2.9 nM
- IC50 ([1]; Primates, Vero, Serum Free of Lipoprotein, average of tests, read-out: IC50 in VERO): 129 ± 8.06 nM
- IC50 ([1]; Serum Free of Lipoprotein, 48 hours, listed as DCX, read-out: IC50 in VERO, individual tests): 106 nM (2×) and 140 nM and 153 nM and 152 nM and 111 nM
- GGT concentration in plasma [2]: No significant differences
- GOT concentration in plasma [2]: O significant differences
- signs after day 12 ([3]; rabbit, in vivo, 3.2 mg/kg): anorexia and adipsia
- dead animals after the first cycle of inoculation ([3]; rabbits, 3.2 mg/kg Docetaxel): dead animals were found
- dead animals after the second cycle of inoculation ([3]; rabbits, 3.2 mg/kg Docetaxel): dead animals were found
- mortality / lethality ([3]; rabbits, 3.2 mg/kg Docetaxel (4 ml/kg), three cycles): 80%
- IC50 ([4]; Homo sapiens, Epithelial cell, 48 h, Normal Serum, 48 hours, read-out: IC50 in PC3, individual tests): 3.5 nM
- IC50 ([4]; Homo sapiens, Epithelial cell, LP-FREE SERUM, Table 18, read-out: IC50 PC3): 30 nM
- IC50 ([4]; Homo sapiens, Epithelial cell, NORMAL SERUM, Table 18, read-out: IC50 PC3): 4 nM
- IC50 ([4]; Homo sapiens, Epithelial cell, Normal Serum, average of tests, read-out: IC50 in PC3): 3.5 ± 0.1 nM
- IC50 ([4]; Homo sapiens, Epithelial cell, Serum Free of Lipoprotein, average of tests, read-out: IC50 in PC3): 30.2 ± 6.3 nM
- IC50 ([4]; Homo sapiens, Epithelial cell, prostate cancer cell cultures, without lipoproteins, read-out: IC50): 30 nM
- Si PC3 ([4]; LP-FREE SERUM, SI=IC50 (Vero)/IC50 (PC3)): 4
- IC50 ([4]; Normal Serum, 48 hours, listed as DCX, read-out: IC50 in PC3, individual tests): 3.9 nM and 3.3 nM and 3.4 nM
- IC50 ([4]; Serum Free of Lipoprotein, 48 hours, listed as DCX, read-out: IC50 in PC3, individual tests): 37.5 nM and 34.5 nM and 39 nM and 10 nM
- times more toxic in the presence of lipoproteins ([4]; prostate cancer cell cultures): 7.5 times
- DCX Concentration in Liver ([5]; 24 hours): 446 ± 66
- DCX Concentration in Liver ([5]; 36 hours): 495 ± 126
- Docetaxel release, comparison between solutions [6]: released more decetaxel than the lipid nanoparticles
- incidence of reactions of unpredictable acute toxicity [7]: 5-60%
- IC50 ([8]; Homo sapiens, A549, 48 h, Normal Serum, 48 hours, read-out: IC50 in A549, individual tests): 8.75 nM
- IC50 ([8]; Homo sapiens, A549, 48 h, Serum Free of Lipoprotein, 48 hours, read-out: IC50 in A549, individual tests): 25.5 nM
- IC50 ([8]; Homo sapiens, A549, LP-FREE SERUM, Table 18, read-out: IC50 A549): 34 nM
- IC50 ([8]; Homo sapiens, A549, NORMAL SERUM, Table 18, read-out: IC50 A549): 9 nM
- IC50 ([8]; Homo sapiens, A549, Normal Serum, average of tests, read-out: IC50 in A549): 8.7 ± 0.7 nM
- IC50 ([8]; Homo sapiens, A549, Serum Free of Lipoprotein, average of tests, read-out: IC50 in A549): 33.8 ± 3.2 nM
- IC50 ([8]; Homo sapiens, A549, lung cancer cell cultures, without lipoproteins, read-out: IC50): 34 nM
- Si A549 ([8]; LP-FREE SERUM, SI=IC50 (Vero)/IC50 (A549)): 4
- SI A549 ([8]; NORMAL SERUM, SI=IC50 (Vero)/IC50 (A549), listed as DCX): 16
- IC50 ([8]; Normal Serum, 48 hours, listed as DCX, read-out: IC50 in A549, individual tests): 6.65 nM and 9.6 nM and 9.9 nM
- IC50 ([8]; Serum Free of Lipoprotein, 48 hours, listed as DCX, read-out: IC50 in A549, individual tests): 33 nM and 37.5 nM and 45.5 nM and 36.5 nM and 25 nM
- times more toxic in the presence of lipoproteins ([8]; lung cancer cell cultures): 3.8 times
- free Docetaxel (fu) ([9]; at 1.24 μM (1 μg/ml) plasma serum): 0.082 µM
- bound to plasma proteins ([9]; ultrafiltration at 37° C. and pH 7.4): > 98%

— US20190046446A1, “APO-E MODIFIED LIPID NANOPARTICLES FOR DRUG DELIVERY TO TARGETED TISSUES AND THERAPEUTIC METHODS” (Eriochem USA, LLC, priority 2016, published 2019)
